In US20050037402A1, “Device and process for direct quantitative in vitro determination of a substance that is contained in a sample” (priority 2003, published 2005):
Values belong to the molecule of their own block, whether it stands above or below them.

What was measured:
[1] = Photophysical characterization of dye-antibody complexes (spectral shifts, fluorescence quantum yields); type: physicochemical; conditions: for Absorption Maximum (nm) / Fluorescence Maximum (nm) / Fluorescence Quantum Yield (%): 1 μmol/l dye, 2.4 μmol/l antibody in PBS; for Absorption Maximum (nm) / Fluorescence Maximum (nm): 2 hours at room temperature; for Fluorescence Quantum Yield (%): relative to indocyanine green
Experimental: Dye-antibody complexes based on antibodies with binding to the indotricarbocyanine dye trisodium-3,3-dimethyl-2-{4-methyl-7-[3,3-dimethyl-5-sulfonato-1-(2-sulfonatoethyl)-3H-indolium-2-yl]hepta-2,4,6-trien-1-ylidene}-1-(2-sulfonatoethyl)-2,3-dihydro-1H-indole-5-sulfonate, inner salt, were examined (see Example 1). Solutions of the concentration of 1 μmol/l of the above-mentioned dye and 2.4 μmol/l of the respective antibody in PBS were produced and incubated for 2 hours at room temperature. The absorption maxima were determined with a spectral photometer (Perkin-Elmer, Lambda2). The fluorescence maxima and fluorescence quantum yields were determined with a SPEX fluorolog (wavelength-dependent sensitivity calibrated by lamp and detector) relative to indocyanine green (Q=0.13 in DMSO, J Chem Eng Data 1977, 22, 379, Bioconjugate Chem 2001, 12, 44). From the absorption and fluorescence maxima, the spectral shifts were calculated relative to the maxima of a solution of the above-mentioned dye without antibodies in PBS (1 μmol/l) (absorption max. 754 nm, fluorescence max. 783 nm, fluorescence quantum yield 10%).

[2] = bound by 12-mer peptides; cited from earlier work
[3] = in DMSO; cited from earlier work
[4] = Inhibition-ELISA for binding of the unconjugated dye by selected HuCAL GOLD Fab fragments
Experimental: The purified and concentrated phagemids of the HuCAL GOLD antibody library were used in a standard selection process. As antigens, BSA- or transferrin-coupled ZK203468 were used alternately. The antigens were taken up in PBS and applied at concentrations of 50 μg/ml on Maxisorp™ microtiter plates F96 (Nunc). The maxisorp plates were incubated overnight at 4° C. (“coating”). After the maxisorp plates were blocked with 5% milk powder in PBS, about 2E+13 HuCAL GOLD phages were added to the antigen-loaded, blocked-off spots and incubated there overnight or for two hours at room temperature. After several washing steps, which became more stringent with progressive selection rounds, bonded phages were eluted with 20 mmol of DTT or 100 μmol of unconjugated ZK203468. Altogether, three successive selection rounds were carried out, whereby the phage amplification was carried out between the selection rounds, as described above.
Several thousand clones were isolated after the selection and sub-cloning and tested by means of ELISA in 384-well format for specific detection of the antigens ZK203468-BSA and—transferrin used in panning. Clones identified in this connection were studied in an inhibition-ELISA for efficient binding of the unconjugated dye.

[5] = dye without antibodies in PBS (1 μmol/l)
[6] = relative to the dye without antibodies in PBS (1 μmol/l)

Absorption Maximum (nm) [1]: 754 nm | Fluorescence Maximum (nm) [1]: 783 nm | absorption max. [1, 5]: 754 nm | fluorescence max. [1, 5]: 783 nm | fluorescence quantum yield [1, 5]: 10% | Fluorescence Quantum Yield (%) [1]: 10.0%
Molecule: CC(C=CC=C1N(CCS(=O)(=O)[O-])c2ccc(S(=O)(=O)[O-])cc2C1(C)C)=CC=CC1=[N+](CCS(=O)(=O)[O-])c2ccc(S(=O)(=O)[O-])cc2C1(C)C.[Na+].[Na+].[Na+] [ZK203468, Trisodium-3,3-dimethyl-2-{4-methyl-7-[3,3-dimethyl-5-sulfonato-1-(2-sulfonatoethyl)-3H-indolium-2-yl]hepta-2,4,6-trien-1-ylidene}-1-(2-sulfonatoethyl)-2,3-dihydro-1H-indole-5-sulfonate, Inner Salt]

Molecule: Texas Red
red shift of the absorption [2]: 2.8 nm | red shift of the fluorescence [2]: 1.4 nm

Molecule: CC1(C)C(/C=C/C=C/C=C/C=C2\N(CCCCS(=O)(=O)O)c3ccc4ccccc4c3C2(C)C)=[N+](CCCCS(=O)(=O)[O-])c2ccc3ccccc3c21 [indocyanine green]
fluorescence quantum yield Q [3]: 0.13

binding to the non-conjugated dye ZK203468 [4]: bind efficiently
B1: MOR02965: HuCAL GOLD Fab fragment binding dye ZK203468; protein SEQ-ID NO: 5 (VH-CH) and 6 (VL-CL) (antibody)
heavy: QVQLQQSGPGLVKPSQTLSLTCAISGDSVSSNSAAWSWIRQSPGRGLEWLGRIYYRSKWYNDYAVSVKSRITINPDTSKNQFSLQLNSVTPEDTAVYYCARTSFYQKLFFIAFDHWGQGTLVTVSSASTKGPSVFPLAPSSKSTSGGTAALGCLVKDYFPEPVTVSWNSGALTSGVHTFPAVLQSSGLYSLSSVVTVPSSSLGTQTYICNVNHKPSNTKVDKKVEPKSEFEQKLISEEDLNGAPWSHPQFEK
light: DIALTQPASVSGSPGQSITISCTGTSSDGGAYHYVSWYQQHPGKAPKLMIYGVIYRPSGVSNRFSGSKSGNTASLTISGLQAEDEADYYCAAWDFRKRLNVFGGGTKLTVLGQPKAAPSVTLFPPSSEELQANKATLVCLISDFYPGAVTVAWKADSSPVKAGVETTTPSKQSNNKYAASSYLSLTPEQWKSHRSYSCQVTHEGSTVEKTVAPTEA
modifications: Fab fragment of variable heavy chain; Fab fragment of variable light chain
Absorption Maximum (nm) [1]: 799 nm | Fluorescence Maximum (nm) [1]: 815 nm | Fluorescence Quantum Yield (%) [1]: 13.0% | Absorption Shift (nm) [1, 6]: 45 nm | Fluorescence Shift (nm) [1, 6]: 32 nm
